Reference: patent publication US20240148821A1, “PHARMACEUTICAL USE OF CYCLIC PEPTIDE COMPOUND” (CHUGAI SEIYAKU KABUSHIKI KAISHA, priority 2021, published 2024)
pIC50: −log10 of the molar value. Bridge positions count the residues as written; N and C are the ends. Square brackets hold non-standard residues; d marks the D form. Peptide text beside a SMILES is read from it. * marks the point of attachment. hPhe(3-Cl-4-CF3) = N[C@@H](CCc1ccc(C(F)(F)F)c(Cl)c1)C(=O)O; NMePhe(4-CF3) = CN[C@@H](Cc1ccc(C(F)(F)F)cc1)C(=O)O; NMePhe(4-Cl) = CN[C@@H](Cc1ccc(Cl)cc1)C(=O)O; NMeAla(cPr) = CN[C@@H](CC1CC1)C(=O)O; NMeCha = CN[C@@H](CC1CCCCC1)C(=O)O; NMeAhp(2) = CCCCC[C@H](NC)C(=O)O; NMeChg = CN[C@H](C(=O)O)C1CCCCC1; NMeI = CC[C@H](C)[C@H](NC)C(=O)O; NMeT = CN[C@H](C(=O)O)[C@@H](C)O; NMeD = CN[C@@H](CC(=O)O)C(=O)O; NMeL = CN[C@@H](CC(C)C)C(=O)O; NMeV = CN[C@H](C(=O)O)C(C)C; Trifluoroethyl = FC(F)(F)C*; d(β3hA) = C[C@@H](N)CC(=O)O; NMeS = CN[C@@H](CO)C(=O)O; NMeA = CN[C@@H](C)C(=O)O; Piperidide = C1CCN(*)CC1; Pyrrolidide = C1CCN(*)C1; Ac5c = NC1(C(=O)O)CCCC1; Aze = O=C(O)[C@@H]1CCN1; Sar = CNCC(=O)O

Key:
[1] = system: Human pancreatic cancer cell line AsPC-1 (G12D mutation Kras); assay: AsPC-1 cell growth inhibition (AsPC-1 CGI); type: cell-based; conditions: read-out: AsPC-1 cell growth inhibition, 50% growth inhibitory concentration (IC50 value); 96 hours, CellTiter-Glo, values classified in ranges
Method: Test compounds were serially dilated with dimethyl sulfoxide, and 200 nL was then dispensed to a U-bottom 96-well plate using Labcyte Echo. […] The cell suspension was dispensed to a. plate containing a test compound at 100 μL per well and incubated at 37° C. in a 5% carbon dioxide gas incubator. 96 hours later, 80 μL of CellTiter-Glo (Promega) was added to each well and fluorescence was measured.

[2] = biological target: protein-protein interaction between Kras and SOS1 (biotin-tagged human Kras loaded with GDP, His-tagged human SOS1) (Homo sapiens (Human), UniProt P01116, G12D); assay: Protein-protein interaction inhibition between Kras and SOS1 (KrasG12D-SOS PPI) using AlphaScreen; type: biochemical; conditions: AlphaScreen; biotin-tagged human Kras loaded with GDP, His-tagged human SOS1; read-out: KRAS G12D-SOS PPI IC50;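 further: kras produced in E. coli, Ni-coupled donor beads and streptavidin acceptor beads, excitation 680 nm with emission detected at 520–620 nm via singlet oxygen transfer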

## CC[C@H](C)[C@@H]1NC(=O)[C@H](CC(C)C)N(C)C(=O)C[C@@H](C(=O)N2CCCCC2)N(C)C(=O)[C@H](C(C)C)N(C)C(=O)C2(CCCC2)NC(=O)[C@@H]2CCCN2C(=O)[C@H](CCc2ccc(C(F)(F)F)c(Cl)c2)NC(=O)CN(C)C(=O)[C@H](CC2CC2)N(C)C(=O)[C@@H]2CCN2C(=O)[C@H](C)N(C)C1=O [Compound 195] ([NMeL]I[NMeA][Aze][NMeAla(cPr)][Sar][hPhe(3-Cl-4-CF3)]P[Ac5c][NMeV][NMeD]-Piperidide; lactam N-11)
[1]
  pIC50: < 6.30
[2]
  pIC50: 8.02

## CC[C@H](C)[C@@H]1NC(=O)[C@H](CC(C)C)N(C)C(=O)C[C@@H](C(=O)N2CCCCC2)N(C)C(=O)[C@H](C2CCCCC2)N(C)C(=O)C2(CCCC2)NC(=O)[C@H](CC2CC2)N(C)C(=O)[C@H](CCc2ccc(C(F)(F)F)c(Cl)c2)NC(=O)CN(C)C(=O)[C@H](CC2CCCCC2)N(C)C(=O)CN(C)C(=O)CN(C)C1=O [Compound 200] ([NMeL]I[Sar][Sar][NMeCha][Sar][hPhe(3-Cl-4-CF3)][NMeAla(cPr)][Ac5c][NMeChg][NMeD]-Piperidide; lactam N-11)
[1]
  pIC50: < 6.30
[2]
  pIC50: 7.89

## CC[C@H](C)[C@@H]1NC(=O)[C@H](CC(C)C)N(C)C(=O)C[C@@H](C(=O)N2CCCCC2)N(C)C(=O)[C@H](C2CCCCC2)N(C)C(=O)C2(CCCC2)NC(=O)[C@H](C)NC(=O)[C@H](CCc2ccc(C(F)(F)F)c(Cl)c2)NC(=O)CN(C)C(=O)[C@H](CC2CCCCC2)N(C)C(=O)CN(C)C(=O)CN(C)C1=O [Compound 205] ([NMeL]I[Sar][Sar][NMeCha][Sar][hPhe(3-Cl-4-CF3)]A[Ac5c][NMeChg][NMeD]-Piperidide; lactam N-11)
[1]
  pIC50: < 6.30
[2]
  pIC50: 9.31

## CCCCC[C@H]1C(=O)N[C@@H]([C@@H](C)CC)C(=O)N[C@@H](C)C(=O)N2CC[C@H]2C(=O)N(C)[C@@H](Cc2ccc(C(F)(F)F)cc2)C(=O)N(C)CC(=O)N[C@@H](CCc2ccc(C(F)(F)F)c(Cl)c2)C(=O)N2CCC[C@H]2C(=O)NC2(CCCC2)C(=O)N(C)[C@@H]([C@@H](C)CC)C(=O)N(C)[C@H](C(=O)N2CCCC2)CC(=O)N1C [Compound 209] ([NMeAhp(2)]IA[Aze][NMePhe(4-CF3)][Sar][hPhe(3-Cl-4-CF3)]P[Ac5c][NMeI][NMeD]-Pyrrolidide; lactam N-11)
[1]
  pIC50: ≥ 7.70
[2]
  pIC50: 8.80

## CC[C@H](C)[C@@H]1NC(=O)[C@H](CC(C)C)N(C)C(=O)C[C@@H](C)NC(=O)[C@H](CC(C)C)N(C)C(=O)C2(CCCC2)NC(=O)[C@H](CC(C)C)N(C)C(=O)[C@H](CCc2ccc(C(F)(F)F)c(Cl)c2)NC(=O)CN(C)C(=O)[C@H](CC2CCCCC2)N(C)C(=O)CN(C)C(=O)CN(C)C1=O [Compound 217] (cyclo([Ac5c][NMeL][d(β3hA)][NMeL]I[Sar][Sar][NMeCha][Sar][hPhe(3-Cl-4-CF3)][NMeL]))
[1]
  pIC50: < 6.30
[2]
  pIC50: 7.18

## CC[C@H](C)[C@@H]1NC(=O)[C@H](CC(C)C)N(C)C(=O)C[C@@H](C(=O)N2CCCCC2)N(C)C(=O)[C@H]([C@@H](C)O)N(C)C(=O)C2(CCCC2)NC(=O)[C@@H]2CCCN2C(=O)[C@H](CCc2ccc(C(F)(F)F)c(Cl)c2)NC(=O)CN(C)C(=O)[C@H](CC2CCCCC2)N(C)C(=O)[C@@H]2CCN2C(=O)[C@H](C)N(C)C1=O [Compound 228] ([NMeL]I[NMeA][Aze][NMeCha][Sar][hPhe(3-Cl-4-CF3)]P[Ac5c][NMeT][NMeD]-Piperidide; lactam N-11)
[1]
  pIC50: < 6.30
[2]
  pIC50: 7.62

## CC[C@H](C)[C@@H]1NC(=O)[C@H](CC(C)C)N(C)C(=O)C[C@@H](C(=O)N2CCCCC2)N(C)C(=O)[C@H]([C@@H](C)CC)N(C)C(=O)C2(CCCC2)NC(=O)[C@@H]2CCCN2C(=O)[C@H](CCc2ccc(C(F)(F)F)c(Cl)c2)NC(=O)CN(C)C(=O)[C@H](Cc2ccc(Cl)cc2)N(C)C(=O)[C@@H]2CCN2C(=O)[C@H](C)N(C)C1=O [Compound 253] ([NMeL]I[NMeA][Aze][NMePhe(4-Cl)][Sar][hPhe(3-Cl-4-CF3)]P[Ac5c][NMeI][NMeD]-Piperidide; lactam N-11)
[1]
  pIC50: ≥ 7.70
[2]
  pIC50: 9.00

## CC[C@H](C)[C@@H]1NC(=O)[C@H](CC(C)C)N(C)C(=O)C[C@@H](C(=O)N2CCCCC2)N(C)C(=O)[C@H](C(C)C)N(C)C(=O)C2(CCCC2)NC(=O)[C@@H]2CCCN2C(=O)[C@H](CCc2ccc(C(F)(F)F)c(Cl)c2)NC(=O)CN(C)C(=O)[C@H](COCC(F)(F)F)N(C)C(=O)[C@@H]2CCN2C(=O)[C@H](C)N(C)C1=O [Compound 254] ([NMeL]I[NMeA][Aze][NMeS](Trifluoroethyl)[Sar][hPhe(3-Cl-4-CF3)]P[Ac5c][NMeV][NMeD]-Piperidide; lactam N-11)
[1]
  pIC50: < 6.30
[2]
  pIC50: 7.82
